Assay [1] has as its target T1, SARS-CoV-2 M^pro (Severe acute respiratory syndrome coronavirus 2, UniProt P0DTD1). The assay is described as follows: biochemical. The following applies: for inhibition at 10 µM: read-out: inhibition rate of SARS-CoV-2 M^pro activity, 10 μM.
Assay [2] concerns the target T1, SARS-CoV-2 M^pro. Also noted: method as in PMID 33290767. The following applies: in vitro, cited from earlier work.
Assay [3] concerns pseudovirus expressing the SARS-CoV-2 spike protein. The following applies: cited from earlier work.

“And” between values parts separate entries of the source, which are not always exact repeats. Equal entries are not always repeated. Where two headings read alike, the source gives them in different places. Bounds are passed on as bounds.

Turning to `C=C(C)[C@@H]1CCC(C)=C[C@H]1c1c(O)cc(CCCCCCC)cc1O` [CBDP, cannabidiphorol], the inhibition at 10 µM on SARS-CoV-2 M^pro [1] stood at 6.55%.

For `CCCCCc1cc2c(c(O)c1C(=O)O)C=CC(C)(CCC=C(C)C)O2` (centres unmarked) [CBCA, cannabichromenic acid], the inhibition at 10 µM at SARS-CoV-2 M^pro [1] was below 10%.

On to `C=C(C)[C@@H]1CCC(C)=C[C@H]1c1c(O)cc(CCCC)cc1O` [CBDB, cannabidibutol], for which, on SARS-CoV-2 M^pro [1], the inhibition at 10 µM was 19.4%.

Consider `C=C(C)[C@@H]1CCC(C)=C[C@H]1c1c(O)cc(CCC)cc1O` [CBDV, cannabidivarin], for which the inhibition at 10 µM on SARS-CoV-2 M^pro [1] amounted to 6.87%.

As to `CCCCCc1cc(O)c2c(c1)OC1(C)CCC3C1C2C3(C)C` (centres unmarked) [CBL, cannabicyclol], on SARS-CoV-2 M^pro [1], the inhibition at 10 µM amounted to 31.1%.

As to `CCCCCc1cc(O)c2c(c1)OC(C)(C)c1ccc(C)cc1-2` [CBN, cannabinol], on SARS-CoV-2 M^pro [1], the inhibition at 10 µM amounted to 28.7%. In addition, the half-maximal inhibitory concentration (IC50) on SARS-CoV-2 M^pro [2] was 7.91 µM.

On to `O=C[C@H](C[C@@H]1CCNC1=O)NC(=O)[C@H](Cc1cccc(F)c1)NC(=O)c1cc2ccccc2[nH]1` [M^pro 11b, reference compound], for which the “inhibition rate of SARS-CoV-2 M^pro activity” value (“inhibition rate” for short) against SARS-CoV-2 M^pro [1] (10 µM) is listed as above 98%.

Take `CCCCCc1cc(O)c(C/C=C(\C)CCC=C(C)C)c(O)c1` [CBG, cannabigerol]: on SARS-CoV-2 M^pro [1], the inhibition at 10 µM was 25.4%.

With `C=C(C)[C@@H]1CCC(C)=C[C@H]1c1c(O)cc(CCCCC)cc1O` [CBD, cannabidiol, reference compound], on SARS-CoV-2 M^pro [1], the inhibition at 50 µM stood at 13.2%, the inhibition at 250 µM came out at 23% and the inhibition at 10 µM is 8.74%.

With `C=C(C)[C@@H]1CCC(C)=C[C@H]1c1c(O)cc(CCCCC)c(C(=O)O)c1O` [CBDA, cannabidiolic acid], the inhibition at 2 µM on SARS-CoV-2 M^pro [1] (2 μM) came to 11.9%. Also, on SARS-CoV-2 M^pro [1], the inhibition at 50 µM was determined as 84.8%, the inhibition at 250 µM turned out to be 101% and the inhibition at 10 µM is 29.4%. In addition, the “effect on pseudovirus infection (in words)” value in assay [3] was “block the infection”.

For `CCCCCc1cc(O)c2c(c1)OC(C)(C)[C@@H]1CCC(C)=C[C@@H]21` [Δ^9-THC, Δ^9-tetrahydrocannabinol, reference compound], the IC50 at SARS-CoV-2 M^pro [2] (read-out: IC50) was 10.2 µM.

In the case of `C=C(C)c1ccc(C)cc1-c1c(O)cc(CCCCC)cc1O` [CBND, cannabinodiol], on SARS-CoV-2 M^pro [1], the inhibition at 10 µM is below 10%.

With “11-nor-Δ^8-tetrahydrocannabinol-9-Carboxylic acid [11-OH-THC]”, the “inhibition rate” value against SARS-CoV-2 M^pro [1] (10 µM) is reported as 56.0%.

Consider `CCCCCc1cc(O)c(C/C=C(\C)CCC=C(C)C)c(O)c1C(=O)O` [CBGA, cannabigerolic acid], for which, on SARS-CoV-2 M^pro [1] (10 μM), the “inhibition rate” value is recorded as above 70%. Also, the inhibition at 12.5 µM against SARS-CoV-2 M^pro [1] (12.5 μM) was 6%. At SARS-CoV-2 M^pro [1] (25 μM), the inhibition at 25 µM was found to be 8%. Further, on SARS-CoV-2 M^pro [1], the inhibition at 50 µM stood at 18.5%; the inhibition at 250 µM is 72.9%; the IC50 was 14.4 µM and 20.7 µM; the inhibition at 10 µM came to 72.9%. The inhibition at 100 µM on SARS-CoV-2 M^pro [1] (100 μM) is 18.2%. Also, in assay [3], the “effect on pseudovirus infection (in words)” value is on record as “block the infection”.

In the case of `CCCCCc1cc2c3c(c1)OC(C)(C)C1CCC(C)(CC31)O2` (centres unmarked) [CBT, cannabicitran], at SARS-CoV-2 M^pro [1], the inhibition at 10 µM was below 10%.

In the case of `C=C(C)[C@@H]1C[C@H](O)C(C)=C[C@H]1c1c(O)cc(CCCCC)cc1O` [6α-OH-CBD, 6α-hydroxy cannabidiol], on SARS-CoV-2 M^pro [1], the inhibition at 10 µM stood at 14.7%.

For the molecule `Cc1cc(C(=O)N[C@@H](C)C(=O)N[C@H](C(=O)N[C@@H](CC(C)C)C(=O)N[C@H](/C=C/C(=O)OCc2ccccc2)C[C@@H]2CCNC2=O)C(C)C)no1` [M^pro N3, reference compound], the “inhibition rate” value against SARS-CoV-2 M^pro [1] (10 µM) is reported as above 98%.

As for `CCCCc1cc(O)c2c(c1)OC(C)(C)[C@@H]1CCC(C)=C[C@@H]21` [THCB, Δ^9-tetrahydrocannabibutol], the “inhibition rate” value on SARS-CoV-2 M^pro [1] (10 μM) is listed as above 70%. In addition, at SARS-CoV-2 M^pro [1], the IC50 was 3.62 µM and the inhibition at 10 µM came to 81%.

Take `CCCCCc1cc(O)c2c(c1)OC(C)(CCC=C(C)C)C=C2` (centres unmarked) [CBC, cannabichromene]: at SARS-CoV-2 M^pro [1], the inhibition at 10 µM stood at 42.1%.

On to `C=C(C)[C@@H]1CCC(C)=C[C@H]1c1c(O)cc(CCCCC)c(C(=O)OC)c1O` [CBDAME, cannabidiolic acid methyl ester], for which the inhibition at 10 µM on SARS-CoV-2 M^pro [1] came to 13.7%.

Regarding `CCCc1cc2c(c(O)c1C(=O)O)C=CC(C)(CCC=C(C)C)O2` (centres unmarked) [CBCVA, cannabichromevarinic acid], the inhibition at 10 µM at SARS-CoV-2 M^pro [1] is below 10%.

The values are drawn from article PMC9502466, “Identification of SARS-CoV-2 Main Protease Inhibitors from a Library of Minor Cannabinoids by Biochemical Inhibition Assay and Surface Plasmon Resonance Characterized Binding Affinity” (Molecules, 2022).
